Results from ChEMBL document CHEMBL1148426, “Essential structural features of acetogenins: role of hydroxy groups adjacent to the bis-THF rings” (Bioorg Med Chem Lett, 2004).

Key:
[1] = target: Mitochondrial complex I; NADH oxidoreductase (Bos taurus, UniProt P25708+P52505); test: Inhibitory concentration needed to halve the control NADH oxidase activity in bovine heart submitochondrial particles (SMP); type: protein-complex assay
[2] = target: Mitochondrial complex I; NADH oxidoreductase (Bos taurus) (UniProt P25708+P52505); test: Maximum inhibition (2 uM) halve the control NADH oxidase activity in bovine heart submitochondrial particles (SMP); type: protein-complex assay

Mitochondrial complex I; NADH oxidoreductase, sequence (P25708 21-464 limits assumed, other chains not shown): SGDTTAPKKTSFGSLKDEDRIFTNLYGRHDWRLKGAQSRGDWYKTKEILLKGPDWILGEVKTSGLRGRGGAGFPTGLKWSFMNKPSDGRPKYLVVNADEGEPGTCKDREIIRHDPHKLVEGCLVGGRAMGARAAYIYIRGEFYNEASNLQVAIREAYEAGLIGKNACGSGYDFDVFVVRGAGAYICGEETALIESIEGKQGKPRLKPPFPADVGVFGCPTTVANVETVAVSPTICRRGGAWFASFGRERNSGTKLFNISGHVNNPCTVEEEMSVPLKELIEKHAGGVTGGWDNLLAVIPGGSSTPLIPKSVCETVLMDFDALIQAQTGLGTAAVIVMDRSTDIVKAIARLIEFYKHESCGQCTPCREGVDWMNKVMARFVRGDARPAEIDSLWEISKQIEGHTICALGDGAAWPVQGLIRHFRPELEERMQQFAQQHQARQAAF

Row | SMILES | IC50 [1] | inhibition [2]
1 | CCCCCCCCCC[C@@H](O)[C@H]1CC[C@H]([C@H]2CC[C@H](CCCCCCCCCCCCCC3=C[C@H](C)OC3=O)O2)O1 | 2.7 nM | 
2 | CCCCCCCCCC[C@@H](O)[C@H]1CC[C@H]([C@H]2CC[C@H]([C@H](O)CCCCCCCCCCCCC3=C[C@H](C)OC3=O)O2)O1 [ISODESAACETYLUVARICIN] | 0.75 nM | 
3 | CCCCCCCCCCC[C@H]1CC[C@H]([C@H]2CC[C@H](CCCCCCCCCCCCCC3=C[C@H](C)OC3=O)O2)O1 | 85 nM | 85%
4 | CCCCCCCCCCC[C@H]1CC[C@H]([C@H]2CC[C@H]([C@H](O)CCCCCCCCCCCCC3=C[C@H](C)OC3=O)O2)O1 | 3.1 nM | 
